How the values were obtained:
[1] = tested on: UM cell lines 92.1 and OMM1; assay: ASO-compound combination validation, Excess over Bliss (viability and confluence); assay type: cell-based, human; settings: compound combined with LNA ASO 3 (50 nM), 72 h, viability and confluence read outs; >0 synergism
Experimental: For the validation experiments, uveal melanoma cell lines 92.1 and OMM1 were seeded in 96 well plates (Corning costar 3596) at a density of 5000 cells/well and were allowed to settle overnight. Subsequently, the cells were transfected using lipofectamine 2000 (Life Technologies) with 50 or 100 nM LNA ASO 3 or LNA NTC and treated with various concentrations of the compounds and with a final DMSO concentration of maximum 0.1%. The compounds were added to the wells using the HP D300e Digital dispenser (Tecan). Control cells were transfected with LNA NTC ASO and treated with DMSO.
Cell viability was also examined using a CellTiter-Glo assay (Promega). Before initiating the assay, the culture plates and reconstituted assay buffer were placed at room temperature for 30 minutes. Next, the culture medium was replaced by 200 μl fresh culture medium—- assay buffer (1:1) mix. To induce complete cell lysis, the plates were shaken for 10 min. 100 μl from each well was subsequently transferred to an opaque 96-well plate (Nunc), which was measured with a GloMax 96 Microplate Luminometer (Promega). The CellTiter-Glo assay was performed on various predefined timepoints.
For real-time analysis, IncuCyte Zoom system and IncuCyte S3 system (Essen BioScience) were used. Cells were seeded and treated as described above. After treatment, the culture plate was incubated in an IncuCyte Zoom system or IncuCyte S3 system at 37° C. in a humidified 5% CO2 incubator. Phase contrast whole well images were captured every 3 h. The IncuCyte ZOOM and IncuCyte S3 software (Essen BioScience) were utilized in real-time to measure % confluence, as a proxy for proliferation.
Bliss independence (BI) scores were calculated to determine ASO-compound interactions. The predictive performance (BI score) is then compared to the observed drug interaction data measured by the Excess over Bliss. Excess over Bliss scores>0 indicate drug synergism, Excess over Bliss scores=0 indicate additive effects and Excess over Bliss scores<0 indicate drug antagonism.

[2] = tested on: UM cell line OMM1; assay: Seahorse XF Cell Mito Stress Test; assay type: cell-based, human; settings: GDC-0349 0.625 μM, ASO 3 50 nM, combination compared to single ASO 3 treatment
Experimental: Cells were seeded in T75 culture flasks (Cellstar) at a density of 1 170 000 cells/T75 flask 24 h prior to transfection. The cells were transfected with 50 nM ASO 3 or NTC using lipofectamine 2000, followed by GDC-0349 (0.625 μM) treatment. Four hours later, 25 000 cells were transferred to Seahorse XFp Cell Culture Miniplates (Agilent) and were allowed to settle overnight. Subsequently, oxygen consumption rates were measured in triplicates for each condition using the Seahorse XFp device (Agilent) according to the standard mito stress test procedures in seahorse assay medium supplemented with 14.3 mM glucose, 1 mM pyruvate and 2 mM glutamine (Sigma), and cells were sequentially challenged with 1 μM oligomycin, 1 μM carbonyl cyanide 4-(trifluoromethoxy)-phenylhydrazone (FCCP) and 0.5 μM of a rotenone antimycin A mix (Agilent). Following the assay, protein concentrations were calculated based upon absorbance reading at 280 nm (Biodrop, Isogen Lifescience) for normalization of the results. Spare respiratory capacity was calculated as the difference between maximal and the basal oxygen consumption rate. Relative oxygen consumption rates are relative compared to NTC values.

[3] = tested on: rpS6 (S235/S236); assay: Western blot for rpS6 and phospho-rpS6; assay type: cell-based, human; settings: 92.1, 24 h, GDC-0349 0.625 μM or 1.25 μM; for phosphorylated rpS6 (S235/S236) levels: ASO 3 50 nM
Experimental: (§1) Cells were lysed in RIPA lysis buffer (5 mg/ml sodium deoxycholate, 150 mM NaCl, 50 mM Tris-HCl pH 7.5, 0.1% SDS solution, 1% NP-40) supplemented with protease and/or phosphatase inhibitors Protein concentrations were determined with the BCA protein assay (Bio-Rad). In total, 35 μg of protein lysate was loaded onto an SDS-PAGE gel (10% Pre-cast, Bio-Rad), run at 100 V for 1 h and subsequently blotted onto a nitrocellulose membrane. Antibodies against phospho-S6 Ribosomal Protein (Ser235/236) (#2211, 1:1000 dilution), phospho-4E-BP(Thr37/46) (#2855, 1:1000 dilution), S6 Ribosomal Protein (#2317, 1:1000 dilution) and 4E-BP1 (#9644, 1:1000 dilution) were purchased from Cell Signaling Technology. HRP-labeled anti-rabbit (7074 S, Cell Signaling, 1:10 000 dilution) and anti-mouse (7076P2, Cell Signaling, 1:10 000 dilution) antibodies were used as secondary antibodies. Anti-Vinculin antibody (V9131, Sigma-Aldrich, 1:10 000 dilution) was used as loading control. The antibodies were diluted in BSA/TBST (5% BSA in TBS with 0.1% Tween20) and antibody binding with membrane was evaluated using the SuperSignal West Dura Extended Duration Substrate (ThermoFisher Scientific) or SuperSignal West Femto Maximum Sensitivity Substrate (ThermoFisher Scientific). Imaging was performed by means of the Amersham Imager 680 (GE Healthcare). Image J was used for the quantification of the blots.

[4] = tested on: 4E-BP1 (T37/T46); assay: Western blot for 4E-BP1 and phospho-4E-BP1; assay type: cell-based, human; settings: 92.1, 24 h, GDC-0349 0.625 μM or 1.25 μM; for phosphorylated 4E-BP1 (T37/T46) levels: ASO 3 50 nM
Experimental: as §1

[5] = tested on: UM cell lines 92.1 and OMM1; assay: SUnSET puromycin incorporation (translation rate); assay type: cell-based, human; settings: 92.1 and OMM1, 24 h; ASO 3 50 nM, GDC-0349 0.625 μM
Experimental: Cells were seeded in T75 culture flasks (Cellstar) at a density of 1 170 000 cells/T75 flask 24 h prior to transfection. The cells were transfected with 50 nM LNA ASO 3 or NTC using lipofectamine 2000, followed by GDC-0349 (0.625 μM) or DMSO treatment. 24 h later, cells were washed in 1× phosphate buffer saline (PBS) and subsequently incubated with puromycin containing media (InvivoGen, 10 μg/ml) for 10 min. Puromycin incorporation is a proxy for the mRNA translation rate in vitro and was measured by Western blotting using an anti-puromycin antibody (MABE343, clone 12D10, Merck Millipore, 1:10 000). The antibody was diluted in Milk/TB ST (5% non-fat dry milk in TBS with 0.1% Tween20). Imaging was performed by means of the Amersham Imager 680 (GE Healthcare). An equal protein loading was verified using a ponceau S staining (Sigma Aldrich). Image J was used for the quantification of the blots.

[6] = tested on: UM cell lines 92.1 and OMM1; assay: Differential gene expression analysis by RNA sequencing; assay type: cell-based, human; settings: 92.1 and OMM1, 24 h; ASO 3 50 nM, GDC-0349 0.625 μM
Experimental: RNA sequencing was performed on quadruplicates of NTC (50 nM), ASO 3 (50 nM), GDC-0349 (0.625 μM) and ASO 3 (50 nM)+GDC-0349 (0.625 μM) treated 92.1 and OMM1 cells. Libraries for RNA sequencing were prepared using the Quant Seq 3′ end library prep […] and quantified on a Qubit 2.0 Fluorometer prior to single-end sequencing with 75 bp read length on a NextSeq 500 sequencer (Illumina). Reads were mapped to the human genome (hg38) and gene expression was quantified using HTSeq. Differentialy expressed genes were identified using DESeq2.

[7] = tested on: SAMMSON; assay: SAMMSON expression / knockdown by RT-qPCR in UM cells; assay type: cell-based, human; settings: in most cell lines
Experimental: Total RNA was extracted using the miRNeasy kit (Qiagen) according to the manufacturer's instructions, including on-column DNase treatment. The Nanodrop (ThermoFisher Scientific) was used to determine RNA concentrations and cDNA synthesis was performed using the iScript Advanced cDNA synthesis kit (Bio-Rad) using a mix containing 200 ng of RNA, 4 μl of 5× iScript advanced reaction buffer and 1 μl of iScript advanced reverse transcriptase. The qPCR mix contains 2 μl of cDNA (5 ng), 2.5 μl SsoAdvanced Universal SYBR Green Supermix (Bio-Rad), 0.25 μl forward (5 μM, IDT) and reverse primer (5 μM, IDT) and was analyzed on a LC-480 device (Roche). Expression levels were normalized using expression data of at least 2 stable reference genes out of 4 tested reference genes (SDHA^9,10, HPRT1^11,12, UBC^13 and TBP^14,15). Analysis was performed using the qbase+software (https://www.qbaseplus.com).

[8] = tested on: UM patient derived xenografts (PDX) model (MP46); assay: Tumor growth in UM patient derived xenograft model; assay type: in vivo, mouse
Experimental: Since SAMMSON expression is not conserved across species, an UM patient derived xenografts (PDX) model (MP46) was used to investigate the effect on tumor growth in vivo upon SAMMSON knock down. LNA ASO 3 and LNA non targeting control (NTC) were subcutaneous injected at a dose of 10 mg/kg three times in the first week and twice per week in the second and third week.

CC(=O)Nc1ccc(C(=O)Nc2ccccc2N)cc1 [CI-994, N-(2-aminophenyl)-4-acetamidobenzamide]
Excess over Bliss score (synergism) [1]: synergistic

CCNC(=O)Nc1ccc(-c2nc3c(c(N4CCOC[C@@H]4C)n2)CCN(C2COC2)C3)cc1 [GDC-0349, 3-ethyl-1-(4-{4-[(3S)-3-methylmorpholin-4-yl]-7-(oxetan-3-yl)-5H,6H,7H,8H-pyrido[3,4-d]pyrimidin-2-yl}phenyl)urea]
Excess over Bliss score (synergism) [1]: synergistic | mitochondrial function / oxidative phosphorylation (oxygen consumption rate) [2]: does not alter the mitochondrial function | phosphorylated rpS6 (S235/S236) levels [3]: dose dependent reduction | total rpS6 levels [3]: remain unaffected | phosphorylated 4E-BP1 (T37/T46) levels [4]: dose dependent reduction | total 4E-BP1 levels [4]: remain unaffected | translation rate (incorporated puromycin signal) [5]: translation inhibition | expression pattern of differentially expressed genes compared to NTC ASO [6]: not affecting the expression of many of these genes

Cc1cc(C)c(-c2csc(NC(=O)c3ccccc3)n2)c(C)c1 [INH-6, N-[4-(2,4,6-trimethylphenyl)-2-thiazolyl]-benzamide]
Excess over Bliss score (synergism) [1]: synergistic

COc1cc(NS(C)(=O)=O)ccc1Nc1c2ccccc2nc2ccccc12 [amsacrine, N-{4-[(acridin-9-yl)amino]-3-methoxyphenyl}methanesulfonamide]
Excess over Bliss score (synergism) [1]: synergistic

Oc1c(I)cc(Cl)c2cccnc12 [clioquinol, 5-chloro-7-iodoquinolin-8-ol]
Excess over Bliss score (synergism) [1]: synergistic

Nc1ccccc1NC(=O)c1ccc(CNC(=O)OCc2cccnc2)cc1 [entinostat, (pyridin-3-yl)methyl N-({4-[(2-aminophenyl)carbamoyl]phenyl}methyl)carbamate]
Excess over Bliss score (synergism) [1]: synergistic

CC#C[C@]1(O)CC[C@H]2[C@@H]3CCC4=CC(=O)CCC4=C3[C@@H](c3ccc(N(C)C)cc3)C[C@@]21C [mifepristone, (1S,3aS,3bS,10R,11 aS)-10-[4-(dimethylamino)phenyl]-1-hydroxy-11a-methyl-1-(prop-1-yn-1-yl)-1H,2H,3H,3aH,3bH,4H,5H,7H,8H,9H,10H,11H,11aH-cyclopenta[a]phenanthren-7-one]
Excess over Bliss score (synergism) [1]: synergistic

LNA ASO 3: LNA gapmer antisense oligonucleotide targeting SAMMSON, GTGTGAACTTGGCT (SEQ ID NO: 1), purchased from Qiagen (LNA gapmer from Qiagen, pattern not given here)
knockdown and phenotypic effect compared to LNA ASO 11 [7]: more efficient knockdown and phenotypic effect | weight loss ([8]; subcutaneous 10 mg/kg LNA ASO 3, PDX mice): no weight loss | tumor growth ([8]; subcutaneous 10 mg/kg, three times in first week, twice per week in second and third week, compared to NTC treated PDX mice): significant tumor growth inhibition | phosphorylated rpS6 (S235/S236) levels [3]: doesn't affect the phosphorylation status of rpS6 | phosphorylated 4E-BP1 (T37/T46) levels [4]: less phosphorylated 4E-BP1 | translation rate (incorporated puromycin signal) [5]: translation inhibition | expression pattern of differentially expressed genes compared to NTC ASO [6]: reverses the expression pattern

From patent US20220218734A1, “COMBINATIONS OF THERAPEUTIC AGENTS FOR TREATING UVEAL MELANOMA” (Universiteit Gent, priority 2019, published 2022)
